Tests used:
[1] = fluorescein alone; cited from earlier work
[2] = Water solubility of taxol phosphate analog / arginine heptamer salt versus taxol
Method: This water soluble analog of taxol was assayed for biological activity using a standard cytotoxicity assay.

[3] = cited from earlier work

solubility in water [2]	Structure (SMILES)	solubility in water (general statement) [1]	water solubility [3]
	O=C1OC2(c3ccc(O)cc3Oc3cc(O)ccc32)c2ccccc21 [fluorescein]	poorly soluble	
very limited solubility	CC(=O)O[C@H]1C(=O)[C@@]2(C)[C@H]([C@H](OC(=O)c3ccccc3)[C@]3(O)C[C@H](OC(=O)[C@H](O)[C@@H](NC(=O)c4ccccc4)c4ccccc4)C(C)=C1C3(C)C)[C@]1(OC(C)=O)CO[C@@H]1C[C@@H]2O [taxol, paclitaxel]		≈ 0.25 μg/mL
	CC(=O)O[C@@]12CO[C@@H]1C[C@H](O)[C@@]1(C)C(=O)[C@H](O)C3=C(C)[C@@H](OC(=O)[C@H](O)[C@@H](NC(=O)OC(C)(C)C)c4ccccc4)C[C@@](O)([C@@H](OC(=O)c4ccccc4)[C@H]21)C3(C)C [taxotere]		6 to 7 µg/mL
